The values that follow come from US20250025048A1, “Liver Viscoelastic Changes and Biomarkers for Cancer Invasion” (The Board of Trustees of the Leland Stanford Junior …, priority 2021, published 2025).

Test [1] has as its system livers from HiAD-fed mice. In words: Rheometry of livers (dynamic time sweep and stress relaxation test). The format is in vivo. As to conditions: 600 s; for storage modulus (stiffness, G'): 2% constant strain, 1 radian/s, FIG. 3B; for faster relaxation times (high viscoelasticity) of HiAD livers, stress relaxation test: initial 10% strain, FIGS. 3C-3D. The protocol: FIGS. 3A-3D. […] The plate was lowered to touch the sample and 100˜300 Pa of initial force was applied. Dynamic time sweep test (2% constant strain, oscillation frequency 1 radian/s, measurements taken for 600 s) was done first to collect the shear storage modulus (stiffness, G′) and loss modulus (G″) (FIG. 3A). […] Stress relaxation test was performed for 600 s with an initial 10% strain. […] Stress was normalized by the initial stress (FIG. 3C). Quantification of timescale at which the stress is relaxed to half its original value (τ1/2), from the tests in FIG. 3C (FIG. 3D). (N=2-4, Data are represented as mean±SEM; one way ANOVA followed by post-hoc Tukey test *p<0.05, **p<0.01, ***p<0.001).
The plate was lowered to touch the sample and 100˜300 Pa of initial force was applied. Dynamic time sweep test (2% constant strain, oscillation frequency 1 radian/s, measurements taken for 600 s) was done first to collect the shear storage modulus (stiffness, G′) and loss modulus (G″) (FIG. 3A). […] A stress relaxation test was performed for 600 s with an initial 10% strain. […] Stress was normalized by the initial stress (FIG. 3C). Quantification of timescale at which the stress is relaxed to half its original value (τ1/2), from the tests in FIG. 3C (FIG. 3D). (N=2-4, Data are represented as mean±SEM; one way ANOVA followed by post-hoc Tukey test *p<0.05, **p<0.01, ***p<0.001).

Test [2] has as its system livers from HiAD-fed mice. In words: Atomic force microscopy (AFM) indentation of livers, hysteresis between approach and retraction curves. To be noted: 60 mg/kg daily, i.p., FIG. 1B. The format is in vivo. From the text:
FIGS. 1A-1B. ECM viscoelasticity increases in an advanced glycation end product (AGE) and hepatocyte RAGE-dependent manner. Schematic presentation of the methods used to assess mechanical responses to indentation by an atomic force microscope (AFM) probe. Force-distance curve is generated when the probe indents the sample until a defined force is reached (blue, approach curve) and the cantilever is retracted (red, retraction curve). The hysteresis between the approach and retraction curves indicates sample viscosity (FIG. 1A).
As shown in FIGS. 1A-1B, extracellular matrix (ECM) viscoelasticity increases in an AGE and hepatocyte RAGE-dependent manner. Mechanical responses to indentation were assessed by an atomic force microscope (AFM) probe. A force-distance curve is generated when the probe indents the sample until a defined force is reached and the cantilever is retracted. The hysteresis between the approach and retraction curves indicates sample viscosity (FIG. 1A).

Regarding `Cc1ncc(CO)c(CN)c1O` [PM, pyridoxamine], in test [1], the “storage modulus (stiffness, G')” value is “did not change” and the “faster relaxation times (high viscoelasticity) of HiAD livers, stress relaxation test” value is “reversed”. In test [2], the “hysteresis area between approach and retraction force curves (sample viscosity)” value is recorded as “reduced”.
For `Cc1sc[n+](CC(=O)c2ccccc2)c1C.[Cl-]` [alagebrium, 3-phenacyl-4,5-dimethylthiazolium chloride], in test [1], the “storage modulus (stiffness, G')” value is recorded as “did not change” and the “faster relaxation times (high viscoelasticity) of HiAD livers, stress relaxation test” value is reported as “reversed”.
